Test results taken from PubChem BioAssay (NCI).
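Results reflect a 48-hour exposure of cells in 96-well plates to compound at five concentrations. TGI: total growth inhibition.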

Assays:
Test in all cases: growth of human tumour cells (NCI), 48 h
KM12 colon = system: KM12 colon
A549 NSCLC = system: A549 NSCLC
SF-268 CNS = system: SF-268 CNS
SN12C renal = system: SN12C renal
UO-31 renal = system: UO-31 renal
MOLT-4 leukemia = system: MOLT-4 leukemia
HCT-15 colon = system: HCT-15 colon
SK-MEL-2 melanoma = system: SK-MEL-2 melanoma
NCI/ADR-RES ovarian = system: NCI/ADR-RES ovarian
SW-620 colon = system: SW-620 colon
BT-549 breast = system: BT-549 breast
IGROV1 ovarian = system: IGROV1 ovarian
MALME-3M melanoma = system: MALME-3M melanoma
HCT-116 colon = system: HCT-116 colon
SNB-75 CNS = system: SNB-75 CNS
UACC-257 melanoma = system: UACC-257 melanoma
DU-145 prostate = system: DU-145 prostate
M14 melanoma = system: M14 melanoma
COLO 205 colon = system: COLO 205 colon
SNB-19 CNS = system: SNB-19 CNS
RXF 393 renal = system: RXF 393 renal
HL-60(TB) leukemia = system: HL-60(TB) leukemia
HS 578T breast = system: HS 578T breast
PC-3 prostate = system: PC-3 prostate
CCRF-CEM leukemia = system: CCRF-CEM leukemia
NCI-H226 lung = system: NCI-H226 lung
NCI-H23 lung = system: NCI-H23 lung
OVCAR-5 ovarian = system: OVCAR-5 ovarian
EKVX NSCLC = system: EKVX NSCLC
NCI-H522 lung = system: NCI-H522 lung
U251 CNS = system: U251 CNS
K-562 leukemia = system: K-562 leukemia
TK-10 renal = system: TK-10 renal
OVCAR-3 ovarian = system: OVCAR-3 ovarian
SK-MEL-28 melanoma = system: SK-MEL-28 melanoma
RPMI-8226 leukemia = system: RPMI-8226 leukemia
SF-295 CNS = system: SF-295 CNS
HCC-2998 colon = system: HCC-2998 colon
SK-MEL-5 melanoma = system: SK-MEL-5 melanoma
OVCAR-8 ovarian = system: OVCAR-8 ovarian
OVCAR-4 ovarian = system: OVCAR-4 ovarian
MCF7 breast = system: MCF7 breast
UACC-62 melanoma = system: UACC-62 melanoma
T-47D breast = system: T-47D breast
MDA-N = system: MDA-N
NCI-H460 lung = system: NCI-H460 lung
HOP-62 NSCLC = system: HOP-62 NSCLC
SK-OV-3 ovarian = system: SK-OV-3 ovarian
MDA-MB-231 breast = system: MDA-MB-231 breast
ACHN renal = system: ACHN renal
786-0 renal = system: 786-0 renal
MDA-MB-435 = system: MDA-MB-435
HT29 colon = system: HT29 colon
LOX IMVI melanoma = system: LOX IMVI melanoma
CAKI-1 renal = system: CAKI-1 renal
A498 renal = system: A498 renal
HOP-92 NSCLC = system: HOP-92 NSCLC
SF-539 CNS = system: SF-539 CNS

Measured: TGI

N#C/C(=N/Nc1nc[nH]c1C(N)=O)C(=O)Nc1ccccc1
45.7 µM: NCI-H522 lung
89.6 µM: OVCAR-3 ovarian
not listed: LOX IMVI melanoma | CAKI-1 renal | A498 renal | HOP-92 NSCLC | SF-539 CNS
> 100 µM: all other assays above

CC(C)CCNc1ncnc2[nH]ncc12
not listed: CCRF-CEM leukemia | SF-539 CNS
> 100 µM: all other assays above

O=C1NC(N/N=C/c2c[nH]c3ccccc23)=N/C1=C\c1cccs1
71.9 µM: A498 renal
77.3 µM: OVCAR-3 ovarian
60.6 µM: HL-60(TB) leukemia
not listed: HCC-2998 colon
> 100 µM: all other assays above

CCCCNc1nc2nc[nH]c2c(=O)[nH]1
not listed: HL-60(TB) leukemia | SK-MEL-28 melanoma
> 100 µM: all other assays above

O=C(N/N=C(/COc1ccccc1Cl)N=Cc1cccnc1)c1ccncc1
not listed: UO-31 renal | SK-MEL-5 melanoma | HOP-92 NSCLC
> 100 µM: all other assays above
